In data set [1] the test system is rats. Put plainly: Loss of righting reflexes (LORR) assay in rats, ED50 by up and down method. It counts as in vivo, rat. The note with it: tail vein; for ED50: Rattus norvegicus. A digest of the protocol: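 Adult male Sprague-Dawley rats (250-300 g) dosed i.v. via tail vein at 0.1 mL/s. Anesthesia scored as loss of righting reflex lasting >30 s; ED50 derived by up-and-down method.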

The test system of data set [2] is rats. On the procedure: Adult male Sprague-Dawley rats (250-300 g) were selected for the experiment. […] The anesthesia effects of the compounds were assessed in rats using a LORR assay and a period >30 s was considered as an indicator of general anesthesia. Then the up and down method was used to determine 50% effective dose (ED50). The drugs were administered through the tail vein of rats in a volume of 0.6 mL and at a rate of 0.1 mL/s.

Data set [3] has as its system rats. As to the kind of experiment: Pharmacological characteristics at equivalent doses (2×ED50) in rats. The note with it: 2×ED50, tail vein; for Adverse reactions: Red urine (incidence): DMSO solution (DMSO alone 10/10); for Adverse reactions: Tremor (incidence): animals affected/animals; for Onset time: time of LORR. Put shortly: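 Adult male Sprague-Dawley rats (250-300 g, n=8) received each drug at twice its ED50 via tail vein (0.6 mL at 0.1 mL/s). Onset of anesthesia taken as time to LORR.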

For data set [4], the system named is secretion of corticosterone, H295R cell line. As to the kind of experiment: cells. The note with it: for EC50: read-out: EC50 (Corticosterone). It counts as cell-based. On the procedure:
(§1) The Effects of the Compounds on Adrenocortical Function In Vitro Test
(§2) Then secretion of the cortisol and corticosterone in the supernatant, was measured using HPLC-MS/MS method to determine whether the compounds of the present invention had adrenotoxic potential.

For data set [5], the system named is secretion of cortisol, H295R cell line. Put plainly: cells. It counts as cell-based. To be noted: for EC50: read-out: EC50 (Cortisol). On the procedure: as §1, §2
Data set [6] deals with rats. It counts as in vivo, rat. To be noted: for recovery time of the test animals' righting reflex: rats of the MAP/HR figures, 2×ED50, tail vein, same value in min. Put shortly: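 Rats implanted with telemetry (left ventricular and abdominal aortic catheters, ECG leads) at least one week before recording; compounds given via lateral tail-vein catheter. MAP and HR sampled every 15 s for 30 min before and after dosing to judge hemodynamic stability.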

For data set [7], the system named is rats. On the procedure:
Pharmacological Effects of the Compounds on Continuous Infusion in Rats
Adult male Sprague-Dawley rats with body weight ranging from 250 to 300 gm were selected for continuous infusion test. […] Time to recovery of righting reflex from stopping infusion, and time to fully awake from stopping infusion were recorded.
This is another data set of the same source.

Data set [8] concerns rats. In kind it is in vivo, rat. To be noted: rats of the MAP/HR figures, 2×ED50, tail vein.
[9] abbreviates: continuous tail vein infusion at 2×MIR, LORR maintained 1 hour, Table C4.
Where [10] appears, read: emulsion, continuous infusion at 2×MIR.
Where [11] appears, read: H295R cell line, 0.1-10000 nM, HPLC-MS/MS, Table D3.
Setting [12] is: H295R cell line, 0.1-10000 nM, HPLC-MS/MS, Table E3.
Setting [13] is: continuous tail vein infusion at 2×MIR, LORR maintained 1 hour, Table D4.
The mark [14] stands for this setting: continuous tail vein infusion at 2×MIR, LORR maintained 1 hour, Table E4.

Like-named read-outs stand apart in the source and are kept apart here. Some results are limits rather than exact numbers.

A word on the ED50: it is the midpoint of the dose-response relation. Low readings indicate greater potency, high ones weaker potency. For orientation: EC50 means the midpoint of the concentration-response curve. Regarding `CCCC(CCC)OC(=O)c1cncn1[C@H](C)c1ccccc1` [Compound C20], in data set [1] (class symbols), the ED50 fell in the range of 0.1 to 0.5 mg/kg. Moreover, in data set [2], the Approximate therapeutic index is reported as >16 and the “Minimal lethal dose” value was >7 mg/kg. For the same molecule, in data set [3], the “Righting reflex duration” value was 3.59 ± 2.63 min; the “Adverse reactions: Red urine (incidence)” value is listed as “(8/8)”; the “Adverse reactions: Tremor (incidence)” value was “Tremor (2/8), Red urine”; the “Onset time” value was 0.43 ± 0.07 min. Besides, in data set [4] (H295R, Table C3), the “Corticosterone as an indicator to determine the presence of inhibition” value (“Corticosterone as an indicator … of inhibition” for short) worked out at 0. Further, the EC50 in data set [4] (Homo sapiens, NCI-H295R) is > 10000 nM. In addition, in data set [5] (H295R, Table C3), the “Cortisol as an indicator to determine the presence of inhibition” value (“Cortisol as an indicator … of inhibition” for short) worked out at 0. Further, the 50% effective concentration (EC50) in data set [5] (Homo sapiens, NCI-H295R) is > 10000 nM. In data set [6], the “recovery time of the test animals' righting reflex” value was determined as 4.05 min. In data set [7] (setting [9]), the Onset time is 3 to 4 min; the “Recovery time after stopping infusion” value was 8 to 15 min; the “Types and incidence of adverse reactions” value is reported as “Tremor (3/6), Myoclonus (1/6)”. The “recovery time of the test animals' righting reflex” value in data set [8] came to 243 s.

Consider `CCCC1(OC(=O)c2cncn2[C@H](C)c2ccccc2)COC1` [Compound B19], for which the 50% effective dose (ED50) in data set [1] (class symbols) lay within 0.5 to 1 mg/kg. Besides, in data set [2], the Approximate therapeutic index is reported as >11 and the “Minimal lethal dose” value is >20 mg/kg. Besides, in data set [3], the “Righting reflex duration” value is recorded as 1.99 ± 1.39 min, the “Adverse reactions: Red urine (incidence)” value is listed as 8/8, the “Adverse reactions: Tremor (incidence)” value is 2/8 and the “Onset time” value came to 0.31 ± 0.13 min. Besides, the “Corticosterone as an indicator … of inhibition” value in data set [4] (H295R, Table B3) is 0. Also, in data set [4] (Homo sapiens, NCI-H295R), the EC50 was > 10000 nM. For the same molecule, the “Cortisol as an indicator … of inhibition” value in data set [5] (H295R, Table B3) was 0. The EC50 in data set [5] (Homo sapiens, NCI-H295R) was > 10000 nM. Also, the “recovery time of the test animals' righting reflex” value in data set [6] turned out to be 2.08 min. For the same molecule, the “Recovery time after stopping infusion” value in data set [7] (after 1 hour infusion at 2×MIR) lay in the range of 12 to 17 min. Besides, the “Adverse reactions: Tremor (incidence)” value in data set [7] (continuous infusion 2×MIR) was “Tremor (5/6)”. Further, the “Onset time” value in data set [7] (setting [10]) lay in the range of 3 to 4 min. In data set [8], the “recovery time of the test animals' righting reflex” value was found to be 125 s.

`CC#CC1(OC(=O)c2cncn2[C@H](C)c2ccccc2)COC1` [Compound D39] registered an ED50 in data set [1] (class symbols) of 0.5 to 1 mg/kg. Further, in data set [2], the Approximate therapeutic index was >15 and the “Minimal lethal dose” value was >9 mg/kg. In data set [3], the “Adverse reactions: Hindlimb rigidity (incidence)” value was “Hindlimb rigidity (1/8),”; the “Adverse reactions: Myoclonus (incidence)” value is “Myoclonus (1/8), Red”; the “Righting reflex duration” value is reported as 1.11 ± 0.34 min; the “Adverse reactions: Red urine (incidence)” value is listed as “urine (8/8)”. The “Onset time” value in data set [3] was 0.20 ± 0.05 min. In addition, in data set [4] (setting [11]), the “Corticosterone as an indicator … of inhibition” value was 0. In addition, in data set [4] (Homo sapiens, NCI-H295R), the EC50 is > 1000 nM. The “Cortisol as an indicator … of inhibition” value in data set [5] (setting [11]) worked out at 0. For the same molecule, the EC50 in data set [5] (Homo sapiens, NCI-H295R) is > 1000 nM. Besides, the “recovery time of the test animals' righting reflex” value in data set [6] came out at 6.25 min. In addition, the “recovery time of the test animals' righting reflex” value in data set [8] came to 375 s.

On to `CC(OC(=O)c1cncn1[C@H](C)c1ccccc1)C1CO1` (stereo partly drawn) [Compound B20], for which, in data set [1] (class symbols), the ED50 fell in the range of 0.5 to 1 mg/kg. Moreover, in data set [2], the Approximate therapeutic index is given as >10 and the “Minimal lethal dose” value is >17 mg/kg. Also, in data set [3], the “Righting reflex duration” value is recorded as 2.59 ± 0.99 min, the “Adverse reactions: Red urine (incidence)” value was “Red urine (8/8)” and the “Onset time” value was determined as 0.28 ± 0.14 min. Besides, the “Corticosterone as an indicator … of inhibition” value in data set [4] (H295R, Table B3) was 0. Besides, the EC50 in data set [4] (Homo sapiens, NCI-H295R) was > 1000 nM. Also, in data set [5] (H295R, Table B3), the “Cortisol as an indicator … of inhibition” value was found to be 0. Also, the EC50 in data set [5] (Homo sapiens, NCI-H295R) is > 1000 nM. In data set [6], the “recovery time of the test animals' righting reflex” value came out at 2.68 min. Besides, the “recovery time of the test animals' righting reflex” value in data set [8] was 161 s.

`CCOC(=O)c1cncn1[C@H](C)c1ccccc1` [Etomidate, ethyl R-(+)-1-(1-phenylethyl)-1H-imidazol-5-carboxylate, reference compound] yielded an ED50 in data set [1] (brackets = 95% confidence limit) of 0.75 mg/kg. Also, the “Minimal lethal dose” value in data set [2] was 12.75 mg/kg. Besides, the “Corticosterone as an indicator … of inhibition” value was 2 in data set [4] (setting [11]); 2 in data set [4] (setting [12]); 2 in data set [4] (H295R, Table A3); 2 in data set [4] (H295R, Table B3); 2 in data set [4] (H295R, Table C3). The EC50 was > 10 nM in data set [4] (Homo sapiens, NCI-H295R); > 10 nM in data set [4] (setting [11]); > 10 nM in data set [4] (setting [12]); > 1 nM in data set [5] (Homo sapiens, NCI-H295R); > 1 nM in data set [5] (setting [11]); > 1 nM in data set [5] (setting [12]). In addition, the “Cortisol as an indicator … of inhibition” value in data set [5] (setting [11]) came out at 2; in data set [5] (setting [12]), 2; in data set [5] (H295R, Table A3) it was 2; in data set [5] (H295R, Table B3), 2; in data set [5] (H295R, Table C3), 2. For the same molecule, the entries for the “recovery time of the test animals' righting reflex” value in data set [6] and in data set [8] were 7.33 min and 440 s, respectively. For the same molecule, in data set [6] (rats, 2×ED50, 30 min after administration), the “effect on the circulatory function (MAP, HR)” value is recorded as “almost no inhibitory effect on the circulatory function”. Also, the “Recovery time after stopping infusion” value in data set [7] (after 1 hour infusion at 2×MIR), in data set [7] (setting [9]), in data set [7] (setting [13]) and in data set [7] (setting [14]) was 25 to 30 min in each case. Moreover, the “Adverse reactions: Facial muscle twitching (incidence)” value in data set [7] (continuous infusion 2×MIR) is “twitching (4/6), Tongue stretching”. Besides, the “Adverse reactions: Tongue stretching (incidence)” value in data set [7] (continuous infusion 2×MIR) is recorded as “(5/6)”. In data set [7] (continuous infusion 2×MIR), the “Adverse reactions: Tremor (incidence)” value is listed as 6/6. The Onset time in data set [7] (setting [9]), in data set [7] (setting [13]), in data set [7] (setting [14]) and in data set [7] (setting [10]) was 4 to 5 min each time.

`C#CC1(OC(=O)c2cncn2[C@H](C)c2ccccc2)CCC1` [Compound D1]: in data set [1] (class symbols), the ED50 fell in the range of 0.1 to 0.5 mg/kg. For the same molecule, in data set [2], the Approximate therapeutic index is on record as >14 and the “Minimal lethal dose” value is >6 mg/kg. Further, in data set [3], the “Righting reflex duration” value was found to be 4.28 ± 1.78 min, the “Adverse reactions: Red urine (incidence)” value is “Red urine (8/8)” and the “Onset time” value was 0.26 ± 0.10 min. Besides, the “recovery time of the test animals' righting reflex” value in data set [6] amounted to 13.08 min. Besides, in data set [7] (setting [13]), the Onset time lay in the range of 3 to 4 min; the “Recovery time after stopping infusion” value was 11 to 14 min; the “Types and incidence of adverse reactions” value is “Tremor (2/6)”. Also, the “recovery time of the test animals' righting reflex” value in data set [8] is on record as 785 s.

For the molecule `CCOC(=O)c1c(Cl)ncn1[C@H](C)c1ccccc1` [Compound E100], in data set [1] (class symbols), the “ED50 (mg/kg)” value was “B (B means that the measured ED50 is in the range of 0.10-0.50 mg/kg (excluding 0.10 mg/kg, including 0.50 mg/kg).)”. For the same molecule, in data set [2], the Approximate therapeutic index was >30 and the “Minimal lethal dose” value is reported as >12 mg/kg. For the same molecule, in data set [3], the “Righting reflex duration” value is recorded as 1.98 ± 1.85 min; the “Sedation duration (mg/kg)” value came to 5.82 ± 2.11; the “Adverse reactions: Red urine (incidence)” value is given as “urine (8/8)”; the “Adverse reactions: Tremor (incidence)” value is listed as “(5/8), Red”. In addition, the “Onset time” value in data set [3] is given as 0.60 ± 0.24 min. Besides, the “recovery time of the test animals' righting reflex” value in data set [6] stood at 1.83 min. Further, in data set [7] (setting [14]), the Onset time lay in the range of 2 to 3 min; the “Recovery time after stopping infusion” value lay within 9 to 14 min; the “Types and incidence of adverse reactions” value is on record as “Tremor (3/6)”. Also, the “recovery time of the test animals' righting reflex” value in data set [8] came out at 110 s.

Values taken from patent publication US11434205B2, “Substituted imidazole carboxylate derivatives and the use thereof” (priority 2018, dated 2022).
